Drawing on patent US20150297615A1, “ANDROGEN RECEPTOR INACTIVATION CONTRIBUTES TO ANTITUMOR EFFICACY OF CYP17 INHIBITORS IN PROSTATE CANCER” (UNIVERSITY OF MARYLAND, BALTIMORE, priority 2008, published 2015), this text covers inhibition and IC50 for three molecules.

One assay deals with T1, wild-type AR (Homo sapiens, UniProt P10275).
T1 construct: the wild-type AR expressed endogenously in LAPC4 cells; endogenous in cells; host or cells: LAPC4 cells (endogenous) and PC3-AR cells (PC-3 stably transfected with human wild-type AR)
T1 sequence (P10275 1-920): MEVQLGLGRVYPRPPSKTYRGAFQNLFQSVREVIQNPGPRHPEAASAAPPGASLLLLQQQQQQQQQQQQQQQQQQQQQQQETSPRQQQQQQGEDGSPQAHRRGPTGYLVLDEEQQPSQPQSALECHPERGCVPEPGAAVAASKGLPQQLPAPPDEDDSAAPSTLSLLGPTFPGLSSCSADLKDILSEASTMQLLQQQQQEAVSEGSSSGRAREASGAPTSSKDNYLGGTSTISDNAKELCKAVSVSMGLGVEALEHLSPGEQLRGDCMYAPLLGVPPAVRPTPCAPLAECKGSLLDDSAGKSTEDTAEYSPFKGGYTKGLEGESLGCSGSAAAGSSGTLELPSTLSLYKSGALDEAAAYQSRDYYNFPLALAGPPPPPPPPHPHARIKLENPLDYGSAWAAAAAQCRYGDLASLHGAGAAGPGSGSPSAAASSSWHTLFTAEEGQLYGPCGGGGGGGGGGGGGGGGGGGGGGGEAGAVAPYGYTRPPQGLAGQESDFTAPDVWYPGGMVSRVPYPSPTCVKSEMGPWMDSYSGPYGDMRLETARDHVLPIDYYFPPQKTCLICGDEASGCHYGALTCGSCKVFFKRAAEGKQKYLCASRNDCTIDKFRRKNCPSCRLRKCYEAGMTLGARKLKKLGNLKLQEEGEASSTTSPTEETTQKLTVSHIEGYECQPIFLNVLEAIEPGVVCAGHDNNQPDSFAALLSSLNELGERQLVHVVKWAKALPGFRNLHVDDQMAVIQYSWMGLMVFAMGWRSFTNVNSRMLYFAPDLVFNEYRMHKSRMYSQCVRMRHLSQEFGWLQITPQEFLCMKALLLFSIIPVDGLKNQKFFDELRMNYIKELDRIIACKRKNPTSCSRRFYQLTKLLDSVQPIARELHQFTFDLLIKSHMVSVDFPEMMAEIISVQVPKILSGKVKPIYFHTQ
The assay can be described thus: Competitive inhibition of [3H]R1881 binding, wild-type AR (LAPC4/PC3-AR cells). The conditions noted are these: read-out: wild-type (LAPC4/PC3-AR), inhibition of [3H]R1881 binding as symbol. As for the experimental part:
(§1) In order to determine if the CYP17 inhibitors interact with the AR, competitive binding assays were performed as described previously. The ability of the test compounds (1 nM-10 μM) to displace [^3H]R1881 (5.0 nM) from the AR was determined in LAPC4 cells (wild-type AR), PC3 cells transfected with wild-type AR (PC3-AR), LNCaP cells which express an endogenous AR with a mutation in the ligand binding domain (T877A), and PC3 cells transfected with an AR containing a mutation in the DNA binding domain (T575A).
(§2) The ability of the test compounds to displace [^3H]R1881 (5.0 nM) from the androgen receptor was determined in LAPC4 cells (wild-type AR), PC3 cells transfected with wild-type AR, LNCaP cells which express an endogenous AR with a mutation in the ligand binding domain (T877A), and PC3 cells transfected with an AR containing a mutation in the DNA binding domain (T575A). Cells were plated (2-3×10^5) in 24 well multiwell dishes in steroid-free medium and allowed to attach. The following day the medium was replaced with serum-free, steroid free RPMI supplemented with 0.1% BSA and containing [^3H]R1881 (5 nM), test compounds (1 nM-10 μM), and 1 μM triamcinolone acetonide to saturate progesterone and glucocorticoid receptors. Following a 2 hour incubation period at 37° C., cells were washed twice with ice-cold DPBS and solubilized in DPBS containing 0.5% SDS and 20% glycerol.

The target of another assay is T2, T877A AR (Homo sapiens, UniProt P10275, T878A).
T2 construct: endogenous in cells; host or cells: LNCaP cells
T2 sequence (P10275 1-920 T878A): T1 sequence (P10275 1-920) with T878A
The experiment in a line: Competitive inhibition of [3H]R1881 binding, T877A AR (LNCaP cells). The note with it: read-out: T877A (LNCaP), inhibition of [3H]R1881 binding as symbol. As for the experimental part: as §1, §2

In the next assay the test system is LNCaP cells. The assay can be described thus: Cell proliferation assay (XTT), LNCaP cells. The conditions noted are these: Homo sapiens, 168 h.
The test system of a further assay is LAPC4 cells. The assay can be described thus: Cell proliferation assay (MTT), LAPC4 cells. The conditions noted are these: Homo sapiens, LAPC4, 168 h.
The mark [1] stands for this setting: read-out: LNCaP IC50 (μM), DHT +.
Where [2] appears, read: read-out: LNCaP IC50 (μM), DHT −.
Setting [3] is: read-out: LAPC4 IC50 (μM), DHT +.
Where [4] appears, read: read-out: LAPC4 IC50 (μM), DHT −.

Structures are written as SMILES. Substitutions are numbered along the chain they refer to. Where two headings read alike, the source gives them in different places.

Experimental for LAPC4 cells: To determine the effect of steroids and novel compounds on cell proliferation, each cell type was transferred into steroid-free medium three days prior to the start of the experiments (steroid-free medium consisted of phenol red free RPMI supplemented with 5% dextran-coated, charcoal treated serum and 1% penicillin/streptomycin solution). Growth studies were then performed by plating cells (1.5×10^4cells/well) in 24-well multiwell dishes (Corning, Inc. Corning, N.Y.). After a 24 hour attachment period, the medium was aspirated and replaced with steroid-free medium containing vehicle or the indicated concentrations of androgens and novel compounds (1 nM-10 μM). Control wells were treated with vehicle (ethanol). […] The medium was changed every three days and the numbers of viable cells were compared by MTT or XTT (LNCaP) assay on the seventh day.
For the MTT procedure, following incubation of cells for the above mentioned time, 0.5 mg/ml MTT was added to each well and incubated at 37° C. for three hours. Following incubation, the medium was aspirated completely, with care taken not to disturb the formazan crystals. DMSO (500 μl) was used to solubilize these crystals. After slight shaking, the plates were read at 540 nm with a Victor 1420 scanning multi-well spectrophotometer. All results represent the average of a minimum of three wells. Additional control consisted of medium alone with no cells. XTT was performed essentially as MTT, with the deletion of the solubilization step and was preferred for the LNCaP cells that adhere poorly to the plates.
LNCaP cells were seeded at 15,000 cells/well in 24 well multi-well plates, and LAPC4 cells were seeded at 15,000 cells/well. […] The number of viable cells was compared by MTT assay (LAPC4) or XTT assay (LNCaP) on the 7th day.

As to `C[C@]12CC[C@H](O)CC1=CC[C@@H]1[C@@H]2CC[C@]2(C)C(c3cccnc3)=CC[C@@H]12` [Abiraterone], the inhibition at 10 µM on wild-type AR and on T877A AR was < 20% in each case.

As to `CC(O)(CS(=O)(=O)c1ccc(F)cc1)C(=O)Nc1ccc(C#N)c(C(F)(F)F)c1` (stereo not shown) [Casodex, Bicalutamide], the IC50 in the assay on LNCaP cells (setting [1]) amounted to 8.6 µM; in the assay on LNCaP cells (setting [2]), 4.6 µM; in the assay with LAPC4 cells (setting [3]) it was 10 µM; in the assay with LAPC4 cells (setting [4]) it was 9 µM.

As to `C[C@]12CC[C@H](O)CC1=CC[C@@H]1[C@@H]2CC[C@]2(C)C(n3cnc4ccccc43)=CC[C@@H]12` [VN/124-1, 3β-hydroxy-17-(1H-benzimidazole-1-yl)androsta-5,16-diene], the IC50 came out at 6 µM in the assay with LNCaP cells (setting [1]), 2.6 µM in the assay on LNCaP cells (setting [2]), 3.2 µM with LAPC4 cells (setting [3]) and 4 µM in the assay with LAPC4 cells (setting [4]).

For orientation: IC50 means the point on the concentration scale where inhibition reaches its midpoint.
